Reference: US12227500B2, “Substituted pyrrolo[2,3-b]pyridines for suppressing toxic endoplasmic reticulum stress” (THE TRUSTEES OF COLUMBIA UNIVERSITY IN THE CITY OF NEW YORK, priority 2018, dated 2025)
Several values for one entry are separate records, joined by “and”; a condition that tells them apart may be missing. Identical values can stand only once. Like-named read-outs stand apart in the source and are kept apart here.

Tests used:
[1] = Plasma and brain concentration after IV injection (FIG. 13B); type: in vivo, mouse; conditions: 10 mg/kg
Description: Drug concentrations were analyzed by LC-MS.

[2] = In vivo pharmacokinetics, IP injection or oral gavage, 10 mg/kg; set-up: species or system mouse; conditions: for Kp at 3 h: brain/plasma, read-out: Brain/plasma ratio at 3 h; for Cmax: plasma
Description: Based on its strong performance in the microsome assay, 12k was selected for further pharmacokinetic analysis in vivo. Compounds 1 and 12k were administered to 8 week-old wild-type […] mice at 10 mg/kg through intraperitoneal (IP) injection or oral gavage (OG). Brains and plasma were collected across 4 time points over 24 h for LC-MS/MS analysis.
Compounds 1 and 12k were dissolved in DMSO to 40 mg/mL. For in vivo administration, the DMSO stock was further diluted to 2 mg/mL in a vehicle containing 40% PEG-400 (Sigma) and 55% of a (2-hydroxypropyl)-beta-cyclodextrin solution (20% in nanopure water, Sigma). Compounds were delivered at 10 mg/kg by intraperitoneal injection or oral gavage to 8 week-old male wild-type C57Bl6J mice (Jackson). After 15 min, 3 h, 8 h or 24h, animals were anesthetized with a mixture of ketamine (100 mg/kg) and xylazine (10 mg/kg), then decapitated to collect trunk blood and dissect fresh brain tissue. Blood samples were treated with EDTA solution (50 mM final concentration) to prevent coagulation and centrifuged for 10 min at 845 rcf at 4° to separate plasma. Fresh brains were lysed in 5 volumes of ddH2O.
(§1) Plasma samples were transferred to Eppendorf tubes (50 μL per sample) and diluted with acetonitrile (200 μL). The samples were sonicated for 1 minute followed by centrifugation at 16,000 rpm for 10 minutes. The supernatant was transferred to another Eppendorf tube and the solvent evaporated overnight. The samples were reconstituted in a mixture of 40 μL acetonitrile and 10 μL water transferred to a sample vial with insert, and analyzed by LC-MS.
(§2) Homogenized brain samples (250 μL) were transferred to Eppendorf tubes and diluted with acetonitrile (750 μL). The samples were sonicated for 1 minute followed by centrifugation at 16,000 rpm for 10 minutes. The supernatant (900 μL) was transferred to another Eppendorf tube and the solvent evaporated overnight. The samples were reconstituted in a mixture of 80 μL acetonitrile and 20 μL water, transferred to a sample vial with insert, and analyzed by LC-MS.
(§3) LC-MS analysis was performed on a platform comprising a Thermo Scientific Dionex Ultimate 3000 and a Bruker amaZon SL equipped with an electrospray ionization source controlled by Bruker Hystar 3.2. The compound concentration in each plasma sample was determined using a calibration curve. Chromatographic separation was performed by injecting 10 μL of the sample onto an Agilent Eclipse Plus C18 column (2.1×50 mm, 3.5 μm) maintained at 20° C. The flow rate was maintained at 400 μL/min. The initial flow conditions were 60% solvent A (water containing 0.1% acetic acid) and 40% solvent B (methanol containing 0.1% acetic acid). Solvent B was raised to 60% over 0.25 minutes and to 70% by 6.75 minutes.

[3] = molecular target: T1, panel of 371 human kinases (Homo sapiens, UniProt Q9P289); experiment: Radiolabeled ATP kinase assay, panel of 371 kinases (Table S6); type: biochemical; conditions: MST4; 0.1 μM; 10 μM ATP; read-out: % Enzyme Activity (relative to DMSO controls)
T1 construct: purchased Reaction Biology Corp
T1 sequence (Q9P289 whole entry): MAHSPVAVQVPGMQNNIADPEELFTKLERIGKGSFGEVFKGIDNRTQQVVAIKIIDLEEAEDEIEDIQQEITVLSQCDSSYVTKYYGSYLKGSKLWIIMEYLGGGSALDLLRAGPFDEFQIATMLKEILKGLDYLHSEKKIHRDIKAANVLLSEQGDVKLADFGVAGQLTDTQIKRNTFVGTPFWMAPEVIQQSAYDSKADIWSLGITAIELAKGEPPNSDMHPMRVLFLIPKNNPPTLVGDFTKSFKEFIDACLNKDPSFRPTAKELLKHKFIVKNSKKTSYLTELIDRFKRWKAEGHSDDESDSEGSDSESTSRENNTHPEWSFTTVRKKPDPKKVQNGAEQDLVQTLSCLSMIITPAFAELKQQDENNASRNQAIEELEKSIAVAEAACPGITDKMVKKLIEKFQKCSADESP
From the text: (§4) ; FIG. 38C). […]. Further targeted analyses, such as genetic knock-down or knock-out, may be warranted to parse the role of these additional kinases in our model of neurodegeneration.

[4] = molecular target: T2, panel of 371 human kinases (Homo sapiens, UniProt Q6P2M8); experiment: as above; type: biochemical; conditions: CAMK1b; 0.1 μM; 10 μM ATP; read-out: % Enzyme Activity (relative to DMSO controls)
T2 construct: purchased Reaction Biology Corp
T2 sequence (Q6P2M8 whole entry): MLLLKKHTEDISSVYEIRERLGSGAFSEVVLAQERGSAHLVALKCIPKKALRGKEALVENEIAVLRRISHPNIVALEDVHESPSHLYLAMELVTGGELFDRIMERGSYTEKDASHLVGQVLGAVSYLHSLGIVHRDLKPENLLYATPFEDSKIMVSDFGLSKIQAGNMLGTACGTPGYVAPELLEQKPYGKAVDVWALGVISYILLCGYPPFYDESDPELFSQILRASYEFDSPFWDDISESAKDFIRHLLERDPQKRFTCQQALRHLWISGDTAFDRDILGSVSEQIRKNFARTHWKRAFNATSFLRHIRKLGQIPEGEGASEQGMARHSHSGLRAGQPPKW
From the text: as §4

[5] = molecular target: T3, panel of 371 human kinases (Homo sapiens, UniProt P21802); experiment: as above; type: biochemical; conditions: FGFR2; 0.1 μM; 10 μM ATP; read-out: % Enzyme Activity (relative to DMSO controls)
T3 construct: purchased Reaction Biology Corp
T3 sequence (P21802 22-821): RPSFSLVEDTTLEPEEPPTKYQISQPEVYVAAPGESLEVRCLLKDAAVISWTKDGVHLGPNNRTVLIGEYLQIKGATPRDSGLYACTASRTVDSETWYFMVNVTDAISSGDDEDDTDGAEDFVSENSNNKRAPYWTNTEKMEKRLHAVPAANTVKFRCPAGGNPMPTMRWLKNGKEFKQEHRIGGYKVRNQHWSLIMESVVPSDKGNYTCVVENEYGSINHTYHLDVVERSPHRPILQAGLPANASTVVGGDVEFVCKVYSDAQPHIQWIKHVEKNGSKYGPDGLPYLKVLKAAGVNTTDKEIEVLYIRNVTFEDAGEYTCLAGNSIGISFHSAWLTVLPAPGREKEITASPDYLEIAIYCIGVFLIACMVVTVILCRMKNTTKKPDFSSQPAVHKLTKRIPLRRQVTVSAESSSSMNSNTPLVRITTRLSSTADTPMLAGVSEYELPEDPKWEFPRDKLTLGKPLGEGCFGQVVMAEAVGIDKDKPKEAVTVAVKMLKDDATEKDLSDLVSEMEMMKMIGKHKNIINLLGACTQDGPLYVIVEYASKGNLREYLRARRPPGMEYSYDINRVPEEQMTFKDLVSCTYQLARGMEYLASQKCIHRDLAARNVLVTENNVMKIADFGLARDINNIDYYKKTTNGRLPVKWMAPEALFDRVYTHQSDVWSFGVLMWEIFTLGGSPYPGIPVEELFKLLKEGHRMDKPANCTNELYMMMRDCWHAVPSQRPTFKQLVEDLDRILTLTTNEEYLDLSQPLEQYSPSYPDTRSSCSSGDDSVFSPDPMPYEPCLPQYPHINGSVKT
From the text: as §4

[6] = molecular target: T4, panel of 371 human kinases (Homo sapiens, UniProt Q56UN5); experiment: as above; type: biochemical; conditions: VSK4/MAP3K19; 0.1 μM; 10 μM ATP; read-out: % Enzyme Activity (relative to DMSO controls)
T4 construct: purchased Reaction Biology Corp
T4 sequence (Q56UN5 whole entry): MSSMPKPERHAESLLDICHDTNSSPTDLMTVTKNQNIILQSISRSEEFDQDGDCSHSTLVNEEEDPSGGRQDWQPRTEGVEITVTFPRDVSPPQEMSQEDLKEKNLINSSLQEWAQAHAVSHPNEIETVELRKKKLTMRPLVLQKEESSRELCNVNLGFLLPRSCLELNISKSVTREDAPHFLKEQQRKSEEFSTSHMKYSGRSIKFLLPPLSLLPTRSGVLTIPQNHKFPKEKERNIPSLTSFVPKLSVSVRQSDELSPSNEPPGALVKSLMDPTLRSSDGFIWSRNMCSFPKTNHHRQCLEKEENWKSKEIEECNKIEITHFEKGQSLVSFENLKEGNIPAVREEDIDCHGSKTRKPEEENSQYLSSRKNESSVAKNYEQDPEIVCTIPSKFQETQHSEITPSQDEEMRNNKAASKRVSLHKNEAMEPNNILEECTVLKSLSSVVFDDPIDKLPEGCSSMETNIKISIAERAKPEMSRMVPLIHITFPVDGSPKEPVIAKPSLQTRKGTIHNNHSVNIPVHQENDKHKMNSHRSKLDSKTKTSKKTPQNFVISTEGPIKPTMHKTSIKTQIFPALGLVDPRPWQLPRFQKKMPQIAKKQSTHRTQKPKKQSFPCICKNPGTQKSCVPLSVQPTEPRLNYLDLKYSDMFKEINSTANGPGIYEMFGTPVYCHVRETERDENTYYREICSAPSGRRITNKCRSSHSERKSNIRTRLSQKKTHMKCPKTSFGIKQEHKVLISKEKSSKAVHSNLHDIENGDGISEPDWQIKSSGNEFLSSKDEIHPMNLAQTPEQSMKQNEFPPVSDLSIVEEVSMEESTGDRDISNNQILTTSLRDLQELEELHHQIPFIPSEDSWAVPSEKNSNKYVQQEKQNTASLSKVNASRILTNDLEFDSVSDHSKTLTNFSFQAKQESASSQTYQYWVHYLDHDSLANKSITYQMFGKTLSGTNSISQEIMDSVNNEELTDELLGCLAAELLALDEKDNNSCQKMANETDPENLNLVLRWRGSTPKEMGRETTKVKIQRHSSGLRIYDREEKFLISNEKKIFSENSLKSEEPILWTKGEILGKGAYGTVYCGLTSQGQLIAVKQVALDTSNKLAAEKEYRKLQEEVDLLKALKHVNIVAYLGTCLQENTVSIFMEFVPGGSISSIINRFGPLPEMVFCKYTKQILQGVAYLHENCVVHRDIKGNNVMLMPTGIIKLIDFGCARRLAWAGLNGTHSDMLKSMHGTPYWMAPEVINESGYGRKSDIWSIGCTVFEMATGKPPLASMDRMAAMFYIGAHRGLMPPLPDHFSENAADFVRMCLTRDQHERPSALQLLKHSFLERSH
From the text: as §4

[7] = molecular target: T5, panel of 371 human kinases (Homo sapiens, UniProt P27361); experiment: as above; type: biochemical; conditions: ERK1; 0.1 μM; 10 μM ATP; read-out: % Enzyme Activity (relative to DMSO controls)
T5 construct: purchased Reaction Biology Corp
T5 sequence (P27361 whole entry): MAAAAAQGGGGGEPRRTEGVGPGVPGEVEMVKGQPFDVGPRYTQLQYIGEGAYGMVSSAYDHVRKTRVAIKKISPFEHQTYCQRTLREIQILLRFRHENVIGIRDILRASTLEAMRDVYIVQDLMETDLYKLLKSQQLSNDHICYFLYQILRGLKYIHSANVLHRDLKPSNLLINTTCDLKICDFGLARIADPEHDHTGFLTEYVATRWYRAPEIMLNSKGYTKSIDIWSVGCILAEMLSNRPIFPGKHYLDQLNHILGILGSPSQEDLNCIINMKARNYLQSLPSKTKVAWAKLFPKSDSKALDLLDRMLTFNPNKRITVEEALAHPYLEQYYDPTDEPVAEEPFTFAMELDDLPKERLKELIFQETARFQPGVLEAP
From the text: as §4

[8] = Plasma and brain concentration 30 min after IP injection; type: in vivo, mouse; conditions: male, C57BL6/J, mouse, mice, ip dosing, 30 minutes; for Kp at 30 min: brain/plasma, read-out: B/P
Description: All studies were performed on 6-week old male C57BL6/J mice that were housed in the Columbia University Medical Center facility in a 12h light/dark cycle with access to food and water ad libitum. All animal procedures were approved by the Columbia University IACUC. […] Animals were weighed and injected once intraperitoneally (IP) at the indicated dose (10 or 20 mg/kg). After 30 min, animals were deeply anesthetized with 2.5% Avertin. Whole blood was collected by cardiac puncture in tubes containing 0.5M EDTA as an anticoagulant, and centrifuged for 10 min at 845 rcf at 4° to isolate plasma. Following cardiac puncture, animals were decapitated and brains were dissected and weighed. Brain samples were homogenized with a glass dounce homogenizer in 5 volumes of ddH2O. Brain and plasma samples were snap frozen in liquid nitrogen and stored at −80° C. before further processing.
as §1, with “The plasma” for “Plasma”
as §2, with “The homogenized” for “Homogenized”
as §3

## CN1CCN(Cc2ccc(-c3cnc4[nH]cc(-c5ccc6[nH]ccc6c5)c4c3)cc2)CC1 [Compound 1, 3-(1H-Indol-5-yl)-5-(4-((4-methylpiperazin-1-yl)methyl)phenyl)-1H-pyrrolo[2,3-b]pyridine, reference compound]
[1]
  level in plasma and brain 1 h after injection (LC-MS): below the limits of detection
[2]
  Oral bioavailability (% F) based on plasma measurements in IP vs. OG-treated animals: 46%
[2]; IP
  Brain AUC: 1568 ng·h/mL
  Brain mean Cmax: 208.83 µg/kg
  Plasma AUC: 7328 ng·h/mL
[2]; OG
  Brain AUC: 567.2 ng·h/mL
  Brain mean Cmax: 83.35 µg/kg
  Plasma AUC: 3401 ng·h/mL
[2]; male, mouse, ip
  Kp at 3 h: 0.25
  Cmax: 972 ng/mL
[2]; male, mouse, oral, OG
  Kp at 3 h: 0.18
[2]; male, mouse, po, OG
  Cmax: 476 ng/mL
[3]
  remaining activity at 0.1 µM: 73%
[4]
  remaining activity at 0.1 µM: 105%
[5]
  remaining activity at 0.1 µM: 79.9%
[6]
  remaining activity at 0.1 µM: 101%
[7]
  remaining activity at 0.1 µM: 86%
[8]; 10 mg/kg
  Kp at 30 min: 0.3
[8]; 20 mg/kg
  Kp at 30 min: 0.4
[8]; 10 mg/kg, read-out: brain
  concentration at 30 min: 1010 ng/g and 1.89 µM
[8]; 10 mg/kg, read-out: plasma
  concentration at 30 min: 3210 ng/mL and 6 µM
[8]; 20 mg/kg, read-out: brain
  concentration at 30 min: 1410 ng/g and 2.64 µM
[8]; 20 mg/kg, read-out: plasma
  concentration at 30 min: 3480 ng/mL and 6.5 µM

## OCCN1CCN(Cc2ccc(-c3cnc4[nH]cc(-c5cccc(Cl)c5)c4c3)cc2)CC1 [Compound 12k, 2-(4-(4-(3-(3-Chlorophenyl)-1H-pyrrolo[2,3-b]pyridin-5-yl)benzyl)piperazin-1-yl)ethan-1-ol]
[1]
  level in plasma and brain 1 h after injection (LC-MS): still detectable
[2]
  Oral bioavailability (% F) based on plasma measurements in IP vs. OG-treated animals: 73%
[2]; IP
  Brain AUC: 11570 ng·h/mL
  Brain mean Cmax: 1162.23 µg/kg
  Plasma AUC: 3899 ng·h/mL
[2]; IP-injected
  brain Cmax: 1162 ng/g and 2.60 μM
[2]; OG
  Brain AUC: 8429 ng·h/mL
  Brain mean Cmax: 658.88 µg/kg
  Plasma AUC: 2785 ng·h/mL
[2]; male, mouse, brain, po, read-out: Oral bioavailability (% F) by comparing brain measurements
  bioavailability: 73%
[2]; male, mouse, ip
  Kp at 3 h: 3.91
  Cmax: 454 ng/mL
[2]; male, mouse, oral, OG
  Kp at 3 h: 2.58
[2]; male, mouse, po, OG
  Cmax: 184 ng/mL
[3]
  remaining activity at 0.1 µM: 73.2%
[4]
  remaining activity at 0.1 µM: 103%
[5]
  remaining activity at 0.1 µM: 89.5%
[6]
  remaining activity at 0.1 µM: 107%
[7]
  remaining activity at 0.1 µM: 92.8%
[8]; 10 mg/kg
  Kp at 30 min: 3.3
[8]; 20 mg/kg
  Kp at 30 min: 4
[8]; 10 mg/kg, read-out: brain
  concentration at 30 min: 1230 ng/g and 2.74 µM
[8]; 10 mg/kg, read-out: plasma
  concentration at 30 min: < 375 ng/mL and < 840 nM
[8]; 20 mg/kg, read-out: brain
  concentration at 30 min: 5180 ng/g and 11.6 µM
[8]; 20 mg/kg, read-out: plasma
  concentration at 30 min: 1290 ng/mL and 2.88 µM
